{"source": "ChEMBL document CHEMBL6120946", "about": "“From Hit to Lead: Discovery of First-In-Class Furanone Glycoside D228 Derived from Chimonanthus salicifolius for the Treatment of Inflammatory Bowel Disease” (J Med Chem, 2024)", "key": {"Mus musculus [1]": {"system": "Mus musculus", "test": "Antiinflammatory activity in DSS-induced male C57BL/6 mouse model of inflammatory bowel disease assessed as amelioration of structural loss of colon at 50 to 100 microM/Kg by H and E staining based analysis", "assay_type": "functional, organism-based", "conditions": "dose 50-100 µM/Kg"}, "Mus musculus [2]": {"system": "Mus musculus", "test": "Antiinflammatory activity in DSS-induced male C57BL/6 mouse model of inflammatory bowel disease assessed as amelioration of crypts disruption at 50 to 100 microM/Kg by H and E staining based analysis", "assay_type": "functional, organism-based", "conditions": "dose 50-100 µM/Kg"}, "Mus musculus [3]": {"system": "Mus musculus", "test": "Antiinflammatory activity in DSS-induced male C57BL/6 mouse model of inflammatory bowel disease assessed as inhibition of MPO expression at 50 to 100 microM/Kg, po by immunohistochemical analysis", "assay_type": "functional, organism-based", "conditions": "dose 50-100 µM/Kg"}, "[4]": {"test": "Metabolic stability in human plasma assessed as half life at pH 7.4 measured upto 60 mins by HPLC-MS analysis", "assay_type": "ADME, cell-free"}, "[5]": {"test": "Acute toxicity in male Kunming mouse assessed as effect on heart 5 g/Kg, po measured after 5 weeks", "assay_type": "organism-based", "conditions": "in vivo, 5000 mg/kg, 840 h"}, "[6]": {"test": "Acute toxicity in male Kunming mouse assessed as effect on liver 5 g/Kg, po measured after 5 weeks", "assay_type": "organism-based", "conditions": "in vivo, 5000 mg/kg, 840 h"}, "[7]": {"test": "Acute toxicity in male Kunming mouse assessed as effect on spleen 5 g/Kg, po measured after 5 weeks", "assay_type": "organism-based", "conditions": "in vivo, 5000 mg/kg, 840 h"}, "[8]": {"test": "Acute toxicity in male Kunming mouse assessed as effect on kidney 5 g/Kg, po measured after 5 weeks", "assay_type": "organism-based", "conditions": "in vivo, 5000 mg/kg, 840 h"}, "[9]": {"test": "Acute toxicity in female Kunming mouse assessed as effect on liver 5 g/Kg, po measured after 5 weeks", "assay_type": "organism-based", "conditions": "in vivo, 5000 mg/kg, 840 h"}, "[10]": {"test": "Acute toxicity in female Kunming mouse assessed as effect on spleen 5 g/Kg, po measured after 5 weeks", "assay_type": "organism-based", "conditions": "in vivo, 5000 mg/kg, 840 h"}, "[11]": {"test": "Toxicity in male Kunming mouse assessed as change in food intake at 100 to 500 mg/kg/day, po measured after 5 weeks", "assay_type": "organism-based", "conditions": "in vivo, 840 h, dose 100-500 mg/kg/day"}, "[12]": {"test": "Toxicity in male Kunming mouse assessed as effect on spleen at 100 to 500 mg/kg/day, po measured after 5 weeks by H and E staining based analysis", "assay_type": "organism-based", "conditions": "in vivo, 840 h, dose 100-500 mg/kg/day"}, "[13]": {"test": "Toxicity in male Kunming mouse assessed as effect on kidney at 100 to 500 mg/kg/day, po measured after 5 weeks by H and E staining based analysis", "assay_type": "organism-based", "conditions": "in vivo, 840 h, dose 100-500 mg/kg/day"}, "[14]": {"test": "Toxicity in male Kunming mouse assessed as effect on TP level in serum at 100 to 500 mg/kg/day, po measured after 5 weeks", "assay_type": "organism-based", "conditions": "in vivo, 840 h, dose 100-500 mg/kg/day"}, "[15]": {"test": "Toxicity in male Kunming mouse assessed as effect on […] level in serum at 100 to 500 mg/kg/day, po measured after 5 weeks", "assay_type": "organism-based", "conditions": "in vivo, 840 h, dose 100-500 mg/kg/day"}, "[16]": {"test": "Toxicity in male Kunming mouse assessed as effect on GLU level in serum at 100 to 500 mg/kg/day, po measured after 5 weeks", "assay_type": "organism-based", "conditions": "in vivo, 840 h, dose 100-500 mg/kg/day"}, "[17]": {"test": "Toxicity in male Kunming mouse assessed as effect on Na inorganic salt level in serum at 100 to 500 mg/kg/day, po measured after 5 weeks", "assay_type": "organism-based", "conditions": "in vivo, 840 h, dose 100-500 mg/kg/day"}, "[18]": {"test": "Toxicity in female Kunming mouse assessed as effect on body weight loss at 100 to 500 mg/kg/day, po measured after 5 weeks", "assay_type": "organism-based", "conditions": "in vivo, 840 h, dose 100-500 mg/kg/day"}, "[19]": {"test": "Toxicity in female Kunming mouse assessed as effect on lung to body weight ratio at 100 to 500 mg/kg/day, po measured after 5 weeks", "assay_type": "organism-based", "conditions": "in vivo, 840 h, dose 100-500 mg/kg/day"}, "[20]": {"test": "Toxicity in female Kunming mouse assessed as effect on spleen to body weight ratio at 100 to 500 mg/kg/day, po measured after 5 weeks", "assay_type": "organism-based", "conditions": "in vivo, 840 h, dose 100-500 mg/kg/day"}, "[21]": {"test": "Toxicity in female Kunming mouse assessed as effect on liver to body weight ratio at 100 to 500 mg/kg/day, po measured after 5 weeks", "assay_type": "organism-based", "conditions": "in vivo, 840 h, dose 100-500 mg/kg/day"}, "[22]": {"test": "Toxicity in female Kunming mouse assessed as effect on lung at 100 to 500 mg/kg/day, po measured after 5 weeks by H and E staining based analysis", "assay_type": "organism-based", "conditions": "in vivo, 840 h, dose 100-500 mg/kg/day"}, "[23]": {"test": "Toxicity in female Kunming mouse assessed as effect on liver at 100 to 500 mg/kg/day, po measured after 5 weeks by H and E staining based analysis", "assay_type": "organism-based", "conditions": "in vivo, 840 h, dose 100-500 mg/kg/day"}, "[24]": {"test": "Toxicity in female Kunming mouse assessed as effect on Na inorganic salt level in serum at 100 to 500 mg/kg/day, po measured after 5 weeks", "assay_type": "organism-based", "conditions": "in vivo, 840 h, dose 100-500 mg/kg/day"}, "[25]": {"test": "Toxicity in male Kunming mouse assessed as lethal dose administered as po measured after 5 weeks", "assay_type": "organism-based", "conditions": "in vivo"}, "[26]": {"test": "Drug metabolism in mouse liver microsomes assessed as phoenicein formation measured after 5 mins in presence of NADPH by LC/MS/MS analysis", "assay_type": "ADME, Microsome"}, "Mus musculus [27]": {"system": "Mus musculus", "test": "Antiinflammatory activity in DSS-induced male C57BL/6 mouse model of inflammatory bowel disease assessed as recovery from body weight loss at 40 mg/kg/day, ip measured after 14 days relative to control", "assay_type": "functional", "conditions": "time 14 day"}, "Mus musculus [28]": {"system": "Mus musculus", "test": "Antiinflammatory activity in DSS-induced male C57BL/6 mouse model of inflammatory bowel disease assessed as reduction in weight loss at 15 to 60 mg/kg/day, po via gavage measured upto 14 days", "assay_type": "functional, organism-based", "conditions": "dose 15-60 mg/kg/day, time <= 14.0 day"}, "Mus musculus [29]": {"system": "Mus musculus", "test": "Antiinflammatory activity in DSS-induced male C57BL/6 mouse model of inflammatory bowel disease assessed as decrease in p38 phosphorylation level at 50 to 200 microM/Kg by Western blot analysis", "assay_type": "functional, organism-based", "conditions": "dose 50-200 µM/Kg"}, "Mus musculus [30]": {"system": "Mus musculus", "test": "Antiinflammatory activity in DSS-induced male C57BL/6 mouse model of inflammatory bowel disease assessed as amelioration of structural loss of colon at 50 to 200 microM/Kg by H and E staining based analysis", "assay_type": "functional, organism-based", "conditions": "dose 50-200 µM/Kg"}, "Mus musculus [31]": {"system": "Mus musculus", "test": "Antiinflammatory activity in DSS-induced male C57BL/6 mouse model of inflammatory bowel disease assessed as amelioration of crypts disruption at 50 to 200 microM/Kg by H and E staining based analysis", "assay_type": "functional, organism-based", "conditions": "dose 50-200 µM/Kg"}, "Mus musculus [32]": {"organism": "Mus musculus", "test": "Antiinflammatory activity in DSS-induced male C57BL/6 mouse model of inflammatory bowel disease assessed as reduction in TLR7 level", "assay_type": "functional, organism-based"}, "Mus musculus [33]": {"organism": "Mus musculus", "test": "Antiinflammatory activity in DSS-induced male C57BL/6 mouse model of inflammatory bowel disease assessed as reduction in JNK level", "assay_type": "functional, organism-based"}}, "note": "The source made the active and inactive calls. The calls are words filed in the database; no cut-off is given here."}
{"smiles": "CC(=O)OC[C@H]1O[C@@H](OC2=C(C)OC(=C(C)C)C2=O)[C@H](OC(C)=O)[C@@H](OC(C)=O)[C@@H]1OC(C)=O", "values": [{"measurement": "Activity", "setting": "Mus musculus [1]", "value": "Active"}, {"measurement": "Activity", "setting": "Mus musculus [2]", "value": "Active"}, {"measurement": "Activity", "setting": "Mus musculus [3]", "value": "Active"}, {"measurement": "half-life", "setting": "[4]", "value": 27.7, "unit": "min"}, {"measurement": "Activity", "setting": "[5]", "value": "Non-toxic"}, {"measurement": "Activity", "setting": "[6]", "value": "Non-toxic"}, {"measurement": "Activity", "setting": "[7]", "value": "Non-toxic"}, {"measurement": "Activity", "setting": "[8]", "value": "Non-toxic"}, {"measurement": "Activity", "setting": "[9]", "value": "Non-toxic"}, {"measurement": "Activity", "setting": "[10]", "value": "Non-toxic"}, {"measurement": "Activity", "setting": "[11]", "value": "Non-toxic"}, {"measurement": "Activity", "setting": "[12]", "value": "Non-toxic"}, {"measurement": "Activity", "setting": "[13]", "value": "Non-toxic"}, {"measurement": "Activity", "setting": "[14]", "value": "Non-toxic"}, {"measurement": "Activity", "setting": "[15]", "value": "Non-toxic"}, {"measurement": "Activity", "setting": "[16]", "value": "Non-toxic"}, {"measurement": "Activity", "setting": "[17]", "value": "Non-toxic"}, {"measurement": "Activity", "setting": "[18]", "value": "Non-toxic"}, {"measurement": "Activity", "setting": "[19]", "value": "Non-toxic"}, {"measurement": "Activity", "setting": "[20]", "value": "Non-toxic"}, {"measurement": "Activity", "setting": "[21]", "value": "Non-toxic"}, {"measurement": "Activity", "setting": "[22]", "value": "Non-toxic"}, {"measurement": "Activity", "setting": "[23]", "value": "Non-toxic"}, {"measurement": "Activity", "setting": "[24]", "value": "Non-toxic"}, {"measurement": "LD50 at 840 h", "setting": "[25]", "value": "> 500", "unit": "mg/kg"}, {"measurement": "Drug metabolism", "setting": "[26]", "value": "metabolite_detected"}]}
{"smiles": "CC(C)=C1OC(C)=C(O[C@@H]2O[C@H](CO)[C@@H](O)[C@H](O)[C@H]2O)C1=O", "values": [{"measurement": "Activity", "setting": "Mus musculus [27]", "value": 56.2, "unit": "%"}, {"measurement": "Activity", "setting": "Mus musculus [28]", "value": "Active"}, {"measurement": "Activity", "setting": "Mus musculus [29]", "value": "Active"}, {"measurement": "Activity", "setting": "Mus musculus [30]", "value": "Active"}, {"measurement": "Activity", "setting": "Mus musculus [31]", "value": "Active"}, {"measurement": "Activity", "setting": "Mus musculus [32]", "value": "Active"}, {"measurement": "Activity", "setting": "Mus musculus [33]", "value": "Active"}]}
